Experimental data: ChEMBL document CHEMBL1150356, “Design, synthesis and biological evaluation of substituted pyrrolo[2,3-d]pyrimidines as multiple receptor tyrosine kinase inhibitors and antiangiogenic agents” (Bioorg Med Chem, 2008)

Key:
[1] = molecular target: Platelet-derived growth factor receptor beta (Homo sapiens, UniProt P09619); assay: Inhibition of PDGFRbeta expressed in human tumor cells
[2] = molecular target: Epidermal growth factor receptor (Homo sapiens, UniProt P00533); assay: Inhibition of EGFR expressed in human tumor cells
[3] = molecular target: Vascular endothelial growth factor receptor 1 (Homo sapiens, UniProt P17948); assay: Inhibition of VEGFR1 expressed in human tumor cells
[4] = test system: A-431; assay: cells; details: Homo sapiens
Description: Cytotoxicity against human A431 cells

[5] = molecular target: Vascular endothelial growth factor receptor 2 (Homo sapiens, UniProt P35968)
Description: Inhibition of VEGFR2 expressed in human tumor cells

[6] = organism: Gallus gallus; assay: Antiangiogenic activity against fertile leghorn chicken eggs by CAM assay; assay type: functional, organism-based

Vascular endothelial growth factor receptor 1, sequence (P17948 whole entry): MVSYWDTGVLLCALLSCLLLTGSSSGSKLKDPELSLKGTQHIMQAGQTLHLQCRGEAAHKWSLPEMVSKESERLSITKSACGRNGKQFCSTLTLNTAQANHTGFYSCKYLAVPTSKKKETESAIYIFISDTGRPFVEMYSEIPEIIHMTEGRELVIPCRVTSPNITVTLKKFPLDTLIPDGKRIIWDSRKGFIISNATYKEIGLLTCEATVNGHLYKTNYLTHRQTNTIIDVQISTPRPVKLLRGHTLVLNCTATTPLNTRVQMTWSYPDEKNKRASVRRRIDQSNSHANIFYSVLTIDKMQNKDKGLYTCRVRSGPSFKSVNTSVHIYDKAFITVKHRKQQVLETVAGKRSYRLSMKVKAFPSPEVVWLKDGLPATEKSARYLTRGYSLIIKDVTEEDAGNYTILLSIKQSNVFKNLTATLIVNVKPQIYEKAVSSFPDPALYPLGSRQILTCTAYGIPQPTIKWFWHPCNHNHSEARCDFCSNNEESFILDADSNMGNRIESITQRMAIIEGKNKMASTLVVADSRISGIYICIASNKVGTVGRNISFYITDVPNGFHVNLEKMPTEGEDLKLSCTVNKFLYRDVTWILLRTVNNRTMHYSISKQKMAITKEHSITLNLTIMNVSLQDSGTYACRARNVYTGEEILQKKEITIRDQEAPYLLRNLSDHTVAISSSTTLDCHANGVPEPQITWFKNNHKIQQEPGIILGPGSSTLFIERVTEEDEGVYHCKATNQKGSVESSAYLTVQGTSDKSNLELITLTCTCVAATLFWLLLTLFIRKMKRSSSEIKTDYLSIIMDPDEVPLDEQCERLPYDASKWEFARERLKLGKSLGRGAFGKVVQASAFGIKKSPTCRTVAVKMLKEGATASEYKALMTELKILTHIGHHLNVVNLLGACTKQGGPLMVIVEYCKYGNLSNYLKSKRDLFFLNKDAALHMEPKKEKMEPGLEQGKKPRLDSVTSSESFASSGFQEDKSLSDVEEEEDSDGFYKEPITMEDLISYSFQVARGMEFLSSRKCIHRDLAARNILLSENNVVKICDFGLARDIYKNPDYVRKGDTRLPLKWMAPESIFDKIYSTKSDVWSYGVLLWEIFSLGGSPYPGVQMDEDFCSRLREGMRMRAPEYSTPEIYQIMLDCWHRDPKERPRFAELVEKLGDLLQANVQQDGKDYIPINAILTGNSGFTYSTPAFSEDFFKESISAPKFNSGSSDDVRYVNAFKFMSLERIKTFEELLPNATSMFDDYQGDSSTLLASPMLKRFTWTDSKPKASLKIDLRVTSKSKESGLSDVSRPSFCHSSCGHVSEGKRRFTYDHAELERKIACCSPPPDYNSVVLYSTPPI
Vascular endothelial growth factor receptor 2, sequence (P35968 whole entry): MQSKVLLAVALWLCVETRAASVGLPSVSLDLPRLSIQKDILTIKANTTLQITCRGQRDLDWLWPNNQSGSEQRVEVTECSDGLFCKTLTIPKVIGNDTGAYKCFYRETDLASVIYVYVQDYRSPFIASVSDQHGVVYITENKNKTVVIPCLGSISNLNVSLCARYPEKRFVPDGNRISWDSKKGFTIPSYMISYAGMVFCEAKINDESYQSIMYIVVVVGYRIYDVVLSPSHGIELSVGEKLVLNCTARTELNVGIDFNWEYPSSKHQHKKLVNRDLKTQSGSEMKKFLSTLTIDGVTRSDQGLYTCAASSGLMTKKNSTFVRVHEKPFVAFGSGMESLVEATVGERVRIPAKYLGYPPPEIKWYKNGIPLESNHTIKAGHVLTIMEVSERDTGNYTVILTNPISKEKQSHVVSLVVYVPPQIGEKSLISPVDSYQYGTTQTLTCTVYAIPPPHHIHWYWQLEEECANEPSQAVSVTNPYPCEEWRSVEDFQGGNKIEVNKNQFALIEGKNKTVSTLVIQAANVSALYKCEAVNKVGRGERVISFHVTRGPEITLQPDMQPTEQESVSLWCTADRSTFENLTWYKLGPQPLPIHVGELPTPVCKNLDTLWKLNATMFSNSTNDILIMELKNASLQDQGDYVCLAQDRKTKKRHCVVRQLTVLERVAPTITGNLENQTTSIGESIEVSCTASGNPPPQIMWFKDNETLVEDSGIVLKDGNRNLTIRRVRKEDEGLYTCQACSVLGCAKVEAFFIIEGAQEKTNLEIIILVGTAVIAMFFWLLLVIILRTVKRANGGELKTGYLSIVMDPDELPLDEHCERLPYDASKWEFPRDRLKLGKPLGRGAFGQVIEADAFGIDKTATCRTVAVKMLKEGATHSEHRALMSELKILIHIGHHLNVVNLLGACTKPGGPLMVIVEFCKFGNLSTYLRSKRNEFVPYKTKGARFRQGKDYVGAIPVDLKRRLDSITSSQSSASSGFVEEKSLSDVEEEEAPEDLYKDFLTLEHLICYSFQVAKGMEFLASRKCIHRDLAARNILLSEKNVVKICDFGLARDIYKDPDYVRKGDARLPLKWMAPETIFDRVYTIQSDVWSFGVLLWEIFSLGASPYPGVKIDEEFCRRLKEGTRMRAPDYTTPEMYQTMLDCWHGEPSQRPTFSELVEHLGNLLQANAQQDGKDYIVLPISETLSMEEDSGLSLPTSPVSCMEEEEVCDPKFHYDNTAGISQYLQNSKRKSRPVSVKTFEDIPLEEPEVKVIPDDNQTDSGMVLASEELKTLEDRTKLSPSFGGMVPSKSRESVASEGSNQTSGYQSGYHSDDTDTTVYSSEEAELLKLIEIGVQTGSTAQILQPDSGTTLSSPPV
Epidermal growth factor receptor, sequence (P00533 whole entry): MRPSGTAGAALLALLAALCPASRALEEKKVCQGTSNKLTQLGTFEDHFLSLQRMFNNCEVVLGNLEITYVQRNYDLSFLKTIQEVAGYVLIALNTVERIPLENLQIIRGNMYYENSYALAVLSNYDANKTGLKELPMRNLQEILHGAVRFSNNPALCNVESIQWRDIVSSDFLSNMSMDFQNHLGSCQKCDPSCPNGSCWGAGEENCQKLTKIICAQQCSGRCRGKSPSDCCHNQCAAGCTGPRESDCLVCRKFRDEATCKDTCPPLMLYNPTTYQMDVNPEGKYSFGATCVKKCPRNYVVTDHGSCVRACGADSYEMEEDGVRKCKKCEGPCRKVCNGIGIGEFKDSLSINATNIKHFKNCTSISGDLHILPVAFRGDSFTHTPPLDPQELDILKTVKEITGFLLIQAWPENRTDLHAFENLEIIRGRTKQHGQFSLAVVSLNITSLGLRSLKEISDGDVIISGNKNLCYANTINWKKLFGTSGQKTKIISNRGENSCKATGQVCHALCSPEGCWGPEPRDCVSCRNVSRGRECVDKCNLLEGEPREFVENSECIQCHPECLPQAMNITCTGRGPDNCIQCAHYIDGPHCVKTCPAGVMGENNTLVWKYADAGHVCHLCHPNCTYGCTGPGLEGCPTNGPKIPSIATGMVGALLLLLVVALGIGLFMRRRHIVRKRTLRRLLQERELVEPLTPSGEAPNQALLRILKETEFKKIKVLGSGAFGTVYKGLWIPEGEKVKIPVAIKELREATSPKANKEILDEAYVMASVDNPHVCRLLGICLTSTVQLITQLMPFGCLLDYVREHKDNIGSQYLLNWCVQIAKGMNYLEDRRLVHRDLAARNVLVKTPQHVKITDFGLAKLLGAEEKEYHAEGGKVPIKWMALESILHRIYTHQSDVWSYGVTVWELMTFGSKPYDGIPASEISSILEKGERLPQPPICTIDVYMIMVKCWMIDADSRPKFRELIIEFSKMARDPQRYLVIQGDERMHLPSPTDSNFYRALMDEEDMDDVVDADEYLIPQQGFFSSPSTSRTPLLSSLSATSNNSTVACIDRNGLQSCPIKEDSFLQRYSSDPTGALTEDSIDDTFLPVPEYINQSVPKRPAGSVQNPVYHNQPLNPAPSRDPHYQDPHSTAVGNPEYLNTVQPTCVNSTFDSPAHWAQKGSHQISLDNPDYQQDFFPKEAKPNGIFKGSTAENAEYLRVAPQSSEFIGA
Platelet-derived growth factor receptor beta, sequence (P09619 whole entry): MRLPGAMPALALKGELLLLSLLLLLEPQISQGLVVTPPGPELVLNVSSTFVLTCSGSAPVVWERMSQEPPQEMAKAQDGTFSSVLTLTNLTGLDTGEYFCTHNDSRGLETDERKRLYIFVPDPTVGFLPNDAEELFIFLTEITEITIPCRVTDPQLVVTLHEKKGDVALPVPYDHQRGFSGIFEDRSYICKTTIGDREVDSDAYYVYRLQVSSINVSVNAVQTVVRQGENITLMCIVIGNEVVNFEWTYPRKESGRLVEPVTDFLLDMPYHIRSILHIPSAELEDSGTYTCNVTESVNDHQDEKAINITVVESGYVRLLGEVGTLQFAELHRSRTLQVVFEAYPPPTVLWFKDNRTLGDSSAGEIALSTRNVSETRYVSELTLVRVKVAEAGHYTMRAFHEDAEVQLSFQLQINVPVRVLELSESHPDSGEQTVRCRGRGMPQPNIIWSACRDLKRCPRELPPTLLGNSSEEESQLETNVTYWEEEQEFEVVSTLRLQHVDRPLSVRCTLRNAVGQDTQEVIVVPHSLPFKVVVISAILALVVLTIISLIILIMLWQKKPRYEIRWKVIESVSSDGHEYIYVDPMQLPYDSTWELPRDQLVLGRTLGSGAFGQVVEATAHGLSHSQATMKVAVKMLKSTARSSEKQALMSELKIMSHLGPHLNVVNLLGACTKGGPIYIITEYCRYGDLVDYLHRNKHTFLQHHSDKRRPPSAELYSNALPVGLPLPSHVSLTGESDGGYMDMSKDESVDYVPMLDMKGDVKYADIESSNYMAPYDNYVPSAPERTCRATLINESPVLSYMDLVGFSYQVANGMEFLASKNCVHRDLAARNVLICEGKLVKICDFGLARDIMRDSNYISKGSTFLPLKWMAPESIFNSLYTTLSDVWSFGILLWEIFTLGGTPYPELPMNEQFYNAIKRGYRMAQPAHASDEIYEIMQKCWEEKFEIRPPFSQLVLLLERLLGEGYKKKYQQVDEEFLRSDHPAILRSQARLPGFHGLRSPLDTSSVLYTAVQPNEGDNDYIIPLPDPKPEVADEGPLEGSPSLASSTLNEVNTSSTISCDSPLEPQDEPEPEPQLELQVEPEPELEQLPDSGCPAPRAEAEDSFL

Row | IC50 [1] [µM] | IC50 [2] [µM] | IC50 [3] [µM] | IC50 [4] [µM] | IC50 [5] [µM] | IC50 [6] [µM] | Compound
1 | > 500 | > 200 | > 200 | 3.4 | 198 | – | Nc1nc(Nc2ccc(F)c(Br)c2)c2cc(CCc3ccccc3)[nH]c2n1
2 | > 50 | 3.4 | 32.7 | 13.2 | 42.3 | 10.1 | Nc1nc(Nc2cccc(Br)c2)c2cc(CCc3ccccc3Cl)[nH]c2n1
3 | > 50 | 2.2 | 31.8 | > 50 | > 50 | 21.1 | COc1ccc(CCc2cc3c(Nc4cccc(Br)c4)nc(N)nc3[nH]2)cc1
4 | 77.4 | > 200 | > 200 | – | 24.9 | – | Nc1nc(Nc2ccc3[nH]ccc3c2)c2cc(CCc3ccccc3)[nH]c2n1
5 | > 500 | 22.8 | > 200 | 6.8 | 132 | 5.9 | Nc1nc(Nc2ccc(F)c(Cl)c2)c2cc(CCc3ccccc3)[nH]c2n1
6 | – | – | – | – | – | 0.053 | Nc1nc(Nc2cccc(Br)c2)c2cc(Cc3cccc4ccccc34)[nH]c2n1
7 | 13.7 | 4.7 | 7.8 | > 50 | 16.8 | 18.9 | Nc1nc(Nc2cccc(Br)c2)c2cc(CCc3ccc4ccccc4c3)[nH]c2n1
8 | 100 | > 200 | > 200 | – | > 200 | – | C#Cc1cccc(Nc2nc(N)nc3[nH]c(CCc4ccccc4)cc23)c1
9 | > 500 | 3.18 | > 200 | 1.6 | > 200 | 3.3 | Nc1nc(Nc2ccc(Cl)cc2)c2cc(CCc3ccccc3)[nH]c2n1
10 | > 500 | > 200 | > 200 | – | > 200 | – | Nc1nc(Nc2cccc(C(F)(F)F)c2)c2cc(CCc3ccccc3)[nH]c2n1
11 | > 500 | 1.32 | > 200 | – | > 200 | – | Nc1nc(Nc2ccc(Cl)cc2F)c2cc(CCc3ccccc3)[nH]c2n1
12 | 11 | 4.8 | 11.2 | 8.2 | – | 15.2 | Nc1nc(Nc2cccc(Br)c2)c2cc(CCc3cccc4ccccc34)[nH]c2n1
13 | 90 | 122 | > 200 | – | > 200 | – | Nc1nc(Nc2ccc(F)c(C(F)(F)F)c2)c2cc(CCc3ccccc3)[nH]c2n1

Row | Compound | IC50 [1] [µM] | IC50 [2] [µM] | IC50 [3] [µM] | IC50 [4] [µM] | IC50 [5] [µM] | IC50 [6] [µM]
14 | Nc1nc(Nc2cccc(Br)c2)c2cc(Cc3ccccc3)[nH]c2n1 | > 50 | – | – | – | – | –
15 | Nc1nc(Nc2cccc(Br)c2)c2cc(CCc3ccccc3)[nH]c2n1 | 11.8 | 0.3 | 45.1 | – | > 50 | 19.5
16 | Nc1nc(Nc2cccc(Br)c2)c2cc(Cc3ccc4ccccc4c3)[nH]c2n1 | > 50 | – | – | – | – | –
17 | Nc1nc(Nc2cccc(Br)c2)c2cc(Cc3ccccc3Cl)[nH]c2n1 | > 50 | – | – | – | – | 1.7
